Laboratory results from the supplement of paper PMC10331698.
± gives the standard deviation of the averaged measurements.

What was measured:
Assay in all cases: level (log10 ratio to DMSO vehicle control); higher = higher biomarker level / cell amount than vehicle control
Details in all cases: in DMSO
[1] = compound: C=CC(F)(F)C(F)(F)C(F)(F)C(F)(F)C(F)(F)C(F)(F)C(F)(F)C(F)(F)C=C [1,8-Divinylperfluorooctane]
Procedure: (§1)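 BioMAP Diversity Plus panel of 12 human primary cell co-culture systems (3C, 4H, LPS, SAg, BT, BF4T, BE3C, CASM3C, HDF3CGF, KF3CT, MyoF, Mphg). Compounds were added 1 h before stimulation and left for 24 h (MyoF 48 h; BT 72 h for soluble read-outs or 6 d for IgG). Biomarkers were read by ELISA, cytotoxicity by SRB, PBMC viability and proliferation by Alamar Blue. Each well value was divided by the mean of 8 DMSO control wells on the same plate and log10 transformed; duplicate blinded samples were tested at 4 concentrations.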

[2] = compound: FC(F)(F)C(F)(F)C(F)(F)C(F)(F)C(F)(F)CCI [1-Iodo-1H,1H,2H,2H-perfluoroheptane]
Procedure: as §1

[3] = compound: NCC(F)(F)C(F)(F)C(F)(F)C(F)(F)C(F)(F)C(F)(F)C(F)(F)F [1H,1H-Perfluorooctylamine]
Procedure: as §1

Perfluorobutanoic acid = compound: O=C(O)C(F)(F)C(F)(F)C(F)(F)F [Perfluorobutanoic acid]
Procedure: as §1

[4] = compound: O=C(O)C(F)(F)OC(F)(F)C(F)(F)OC(F)(F)C(=O)O [Perfluoro-3,6-dioxaoctane-1,8-dioic acid]
Procedure: as §1

[5] = compound: O=S(=O)(O)C(F)(F)C(F)(F)C(F)(F)C(F)(F)C(F)(F)C(F)(F)F [Perfluorohexanesulfonic acid]
Procedure: as §1

Row | Test System | level (log10) ([1]; 6700 nM) | level (log10) ([1]; 20000 nM) | level (log10) ([2]; 6700 nM) | level (log10) ([2]; 20000 nM) | level (log10) ([2]; 60000 nM) | level (log10) ([3]; 6700 nM) | level (log10) ([3]; 20000 nM) | level (log10) ([3]; 60000 nM) | level (log10) (Perfluorobutanoic acid; 6700 nM) | level (log10) (Perfluorobutanoic acid; 20000 nM) | level (log10) (Perfluorobutanoic acid; 60000 nM) | level (log10) ([4]; 6700 nM) | level (log10) ([4]; 20000 nM) | level (log10) ([4]; 60000 nM) | level (log10) ([5]; 6700 nM) | level (log10) ([5]; 20000 nM) | level (log10) ([5]; 60000 nM)
1 | BF4T:tPA | -0.0015 ± 0.018 | 0.0125 ± 0.015 | -0.0055 ± 0.012 | -0.003 ± 0.011 | 0.0065 ± 0.012 | -0.017 ± 0.023 | -0.027 ± 0.021 | 0.003 ± 0.014 | 0.0025 ± 0.005 | 0.0105 ± 0.011 | 0.011 ± 0.013 | -0.003 ± 0.0028 | -0.024 ± 0.018 | 0.0155 ± 0.059 | -0.004 ± 0.023 | -0.0125 ± 0.013 | 0.022 ± 0.0057
2 | BF4T:uPA | -0.0045 ± 0.0064 | -0.0095 ± 0.012 | 0.0125 ± 0.033 | 0.005 ± 0.0071 | 0.0135 ± 0.0064 | -0.0085 ± 0.012 | -0.016 ± 0.016 | -0.0155 ± 0.00071 | -0.005 ± 0.0071 | -0.011 ± 0.021 | -0.0025 ± 0.005 | -0.007 ± 0.013 | -0.015 ± 0.0028 | 0.0035 ± 0.03 | -0.002 ± 0.027 | -0.007 ± 0.02 | -0.0035 ± 0.037
3 | BT:B cell Proliferation | 0.0035 ± 0.037 | 0.035 ± 0.0085 | -0.0065 ± 0.049 | 0.0095 ± 0.015 | -0.0815 ± 0.023 | 0.0105 ± 0.025 | 0.0195 ± 0.016 | 0.039 ± 0.023 | 0.0085 ± 0.00071 | -0.029 ± 0.014 | 0.002 ± 0.0042 | 0.0095 ± 0.016 | -0.009 ± 0.023 | 0.0035 ± 0.0035 | -0.0075 ± 0.047 | 0.0015 ± 0.053 | 0.063 ± 0.024
4 | BT:PBMC Cytotoxicity | 0.0285 ± 0.0035 | 0.019 ± 0.0042 | -0.012 ± 0.03 | -0.0265 ± 0.028 | -0.024 ± 0.011 | -0.0095 ± 0.005 | -0.0065 ± 0.005 | -0.0045 ± 0.036 | 0.003 ± 0.011 | 0.0255 ± 0.018 | -0.0175 ± 0.00071 | -0.018 ± 0.057 | -0.0495 ± 0.0064 | -0.0125 ± 0.012 | 0.0015 ± 0.016 | 0.0325 ± 0.0035 | 0.061 ± 0.0057
5 | BT:Secreted IgG | 0.022 ± 0.0071 | 0.0255 ± 0.019 | -0.006 ± 0.016 | -0.002 ± 0.062 | -0.0185 ± 0.08 | 0.0485 ± 0.03 | 0.039 ± 0.034 | -0.0175 ± 0.04 | 0.017 ± 0.0028 | -0.02 ± 0.035 | 0.0055 ± 0.022 | 0.032 ± 0.025 | 0.0095 ± 0.005 | -0.0365 ± 0.036 | -0.0295 ± 0.0064 | 0.0015 ± 0.0064 | 0.0085 ± 0.0035
6 | BT:sIL-2 | 0.014 ± 0.035 | 0.022 ± 0.05 | -0.068 ± 0.0042 | 0.027 ± 0.047 | -0.15 ± 0.073 | 0.034 ± 0.079 | 0.022 ± 0.0085 | -0.0465 ± 0.053 | -0.011 ± 0.0028 | 0.0285 ± 0.066 | 0.0095 ± 0.042 | 0.004 ± 0.027 | -0.017 ± 0.05 | -0.002 ± 0.041 | -0.059 ± 0.031 | 0.0015 ± 0.035 | -0.001 ± 0.027
7 | BT:sIL-6 | 0.039 ± 0.016 | 0.0415 ± 0.071 | -0.0395 ± 0.043 | 0.0425 ± 0.033 | -0.077 ± 0.0099 | 0.041 ± 0.025 | 0.02 ± 0.05 | -0.1305 ± 0.00071 | 0.019 ± 0.064 | 0.055 ± 0.033 | -0.0415 ± 0.088 | 0.018 ± 0.013 | -0.007 ± 0.0042 | -0.0375 ± 0.00071 | 0.046 ± 0.052 | 0.0105 ± 0.036 | -0.056 ± 0.061
8 | BT:sIL-17A | -0.0055 ± 0.026 | 0.0625 ± 0.079 | -0.269 ± 0.12 | 0.037 ± 0.15 | -0.22 ± 0.067 | 0.0455 ± 0.064 | -0.035 ± 0.038 | -0.184 ± 0.0071 | 0.0335 ± 0.018 | -0.0265 ± 0.025 | -0.019 ± 0.021 | -0.0535 ± 0.049 | 0.154 ± 0.19 | 0.0055 ± 0.047 | 0.135 ± 0.11 | -0.0225 ± 0.25 | -0.133
9 | BT:sIL-17F | 0.012 ± 0.037 | 0.051 ± 0.0057 | -0.0855 ± 0.011 | 0.0525 ± 0.033 | -0.0455 ± 0.16 | -0.033 ± 0.0071 | -0.0475 ± 0.0064 | -0.089 ± 0.017 | 0.081 ± 0.035 | 0.065 ± 0.0014 | -0.035 ± 0.024 | -0.146 ± 0.0057 | -0.102 ± 0.057 | -0.0675 ± 0.022 | 0.0235 ± 0.09 | 0.0375 ± 0.018 | -0.063
10 | BT:sTNF-alpha | 0.016 ± 0.13 | 0.102 ± 0.081 | -0.02 ± 0.038 | 0.063 ± 0.055 | -0.114 ± 0.052 | 0.0435 ± 0.1 | 0.057 ± 0.023 | -0.0375 ± 0.076 | 0.019 ± 0.093 | 0.0875 ± 0.069 | 0.0305 ± 0.023 | -0.0245 ± 0.043 | -0.139 ± 0.035 | -0.019 ± 0.2 | 0.024 ± 0.13 | -0.011 ± 0.034 | -0.0495 ± 0.044
11 | LPS:CCL2/MCP-1 | 0.0065 ± 0.021 | 0.0145 ± 0.029 | -0.013 ± 0.013 | -0.013 ± 0.021 | -0.0045 ± 0.021 | -0.004 ± 0.031 | -0.024 ± 0.014 | -0.001 ± 0.0071 | -0.011 ± 0.011 | -0.01 ± 0.011 | 0.0085 ± 0.025 | -0.02 ± 0.023 | -0.011 ± 0.021 | 0.0075 ± 0.036 | 0.0045 ± 0.0064 | 0.0045 ± 0.0064 | 0.028 ± 0.024
12 | LPS:CD40 | 0.0305 ± 0.018 | 0.0225 ± 0.0064 | 0.0475 ± 0.061 | 0.056 ± 0.061 | 0.014 ± 0.078 | -0.0195 ± 0.019 | -0.0095 ± 0.023 | -0.022 ± 0.04 | 0.0245 ± 0.061 | 0 ± 0.03 | -0.0095 ± 0.022 | 0.025 ± 0.0099 | 0.0195 ± 0.005 | -0.0175 ± 0.053 | 0.004 ± 0.018 | 0.011 ± 0.023 | -0.0045 ± 0.054
13 | LPS:CD62E/E-Selectin | -0.0215 ± 0.029 | -0.023 ± 0.018 | 0.0045 ± 0.012 | 0.004 ± 0.0042 | -0.0005 ± 0.0064 | -0.017 ± 0.03 | -0.005 ± 0.033 | 0.008 ± 0.017 | -0.012 ± 0.018 | -0.01 ± 0.013 | -0.0085 ± 0.005 | 0.019 ± 0.013 | -0.0035 ± 0.0092 | -0.003 ± 0.0028 | -0.0035 ± 0.023 | 0.0025 ± 0.0064 | 0.008 ± 0.035
14 | LPS:CD69 | -0.0135 ± 0.011 | -0.008 ± 0.014 | -0.015 ± 0.0071 | -0.015 | -0.019 ± 0.0057 | -0.045 ± 0.017 | -0.0255 ± 0.036 | 0.002 ± 0.0071 | -0.0005 ± 0.081 | 0.0145 ± 0.088 | 0.002 ± 0.075 | -0.004 ± 0.0071 | 0.003 ± 0.017 | 0.0165 ± 0.022 | -0.0125 ± 0.049 | -0.0035 ± 0.047 | -0.036 ± 0.052
15 | LPS:CD106/VCAM-1 | -0.0145 ± 0.0092 | -0.033 ± 0.0014 | -0.0045 ± 0.00071 | -0.008 ± 0.0014 | -0.0165 ± 0.0064 | -0.006 ± 0.023 | -0.015 ± 0.013 | -0.0135 ± 0.0092 | -0.0095 ± 0.0021 | -0.0075 ± 0.0021 | -0.027 ± 0.033 | 0.011 ± 0.013 | -0.007 ± 0.0028 | -0.009 ± 0.021 | -0.016 ± 0.017 | -0.0155 ± 0.015 | 0.005 ± 0.016
16 | LPS:CD141/Thrombomodulin | -0.0025 ± 0.00071 | 0.011 ± 0.021 | -0.016 ± 0.0085 | -0.014 ± 0.0099 | -0.032 ± 0.0014 | -0.0055 ± 0.025 | -0.0355 ± 0.021 | -0.026 ± 0.034 | -0.0035 ± 0.046 | -0.0295 ± 0.05 | 0.008 ± 0.054 | 0.0085 ± 0.019 | 0.0165 ± 0.0092 | 0.003 ± 0.027 | -0.007 ± 0.0057 | -0.0065 ± 0.013 | -0.008 ± 0.0014
